Laboratory results published in patent publication US20140271727A1, “METHOD OF USING AN ANTIDEPRESSANT FOR INCREASING IMMUNITY OF A SUBJECT AND TREATING CANCER” (NATIONAL YANG-MING UNIVERSITY, priority 2013, published 2014).

Key:
CT26/luc cells = experiment: MTT cell viability assay; type: cell-based, mouse; conditions: 0-80 μM for 24, 48 and 72 hrs
Experimental: (§1) The details in preparing the materials and processing relative analyses will be illustrated as follows. First, CT-26 murine colon carcinoma cells (obtained from Taiwan Liposome Company, Taipei, Taiwan) were transfected with the luciferase gene (hereafter called “CT26/luc”). The CT26/luc tumor cells were cultured in RPMI 1640 medium (Invitrogen) supplemented with 10% fetal bovine serum (Hyclone), 100 units/ml of penicillin, and […] streptomycin (Gibco-BRL) at 37° C. in a 5% CO2 atmosphere.
Before starting the following investigation. The cell viability is analyzed. 3-(4,5-Dimethylthiazol-2-yl)-2,5-diphenyltetrazolium bromide (MTT, Sigma, USA) was dissolved in phosphate-buffered saline (145 mM NaCl, 1.4 mM KH2PO4, 4.3 mM Na2HPO4, and 2.7 mM KCl, pH 7.2). The CT26/luc cells were seeded in 96-well plates overnight, and then treated with various concentrations, such as 0, 5, 10, 20, 40, and 80 μM, of mirtazapine for 24, 48, and 72 hrs. And then, cell viability was determined with MTT assay. […] After 4 hours incubation at 37° C., 100 μl DMSO was added to dissolve the MTT formazan, and the absorbance was determined with an ELISA reader (Power Wave X340, Bio-Tek Instrument Inc., USA) using a wavelength of 570 nm for the excitation. […] The cell cycle analysis was assayed using a FACScan (BD Sciences) and analyzed by CellQuest software (BD Sciences).

IL-12p70 = experiment: Serum IL-12p70 (sIL-12) ELISA in BALB/c mice; type: in vivo, mouse
Experimental: (§2) Second, all animal study protocols were approved by the Institutional Animal Care and Use Committee (IACAU) of National Yang Ming University. Mirtazapine (0.25 mg) was dissolved in 0.05 ml of 0.9% NaCl plus 0.5% absolute ethanol for each mouse (i.e. 10 mg/kg.) Male BALB/c mice (initial weights 25±2 g, and purchased from the National Laboratory Animal Center, Taipei, Taiwan) were housed in the cages, five mice per cage, under a 12:12 h reverse light/dark cycle with lights off at 6 pm Animals were handled and weighed daily for a week to reduce any non-specific stress responses. And then, please refer to FIG. 1A and FIG. 1B, FIG. 1A and FIG. 1B are diagrams showing the experimental designs according to an embodiment of the present invention. […] “Wild-type” means the mice are monitored without tumor inoculation and mirtazapine treatment, drug means the mice are monitored with continuous mirtazapine treatment but without tumor inoculation, never means the mice are monitored with tumor inoculation and daily 0.05 ml of 0.9% NaCl plus 0.5% absolute ethanol treatment but without mirtazapine treatment, always means the mice are monitored with mirtazapine treatment initiated 2 weeks before the tumor inoculation, and concurrent means the mice are monitored with tumor inoculation and mirtazapine treatment on the same day, and after means the mice are monitored with mirtazapine treatment initiated 2 weeks post the tumor inoculation. That is, the mice were assayed on day 22 for behaviors, and then sacrificed for the measurement of lymphocyte subsets and performed with ex vivo autoradiography.
As to the quantification of interleukin-12 (hereafter called “IL-12”), the whole blood withdrawn from the pouch of each mouse was centrifuged at 600×g for 20 min, and serum was collected. The serum IL-12p70 (sIL-12) level was determined using an ELISA kit (R&D Systems, Taiwan). Identification for the lymph node cluster of differentiated CD4+ T helper and CD8+T-cytotoxic lymphocyte subsets was assayed. Briefly, the lymphocytes isolated from the lymph nodes of groins of mice were stained with phycoerythrin-conjugated antimouse CD4 (CD4-PE) monoclonal antibody and peridininchlorophyll-protein-complex-conjugated anti-mouse CD8 (CD8-PerCP) monoclonal antibody (BioLegend, USA). Lymphocyte subsets were identified by FACS analysis using a FACS Calibur flow cytometer. Immunohistochemistry (IHC) of CD4 and CD8 was also performed on day 42 post the tumor inoculation. Tumors were then removed, paraffin embedded, and […] sectioning was performed. The sections were immunohistostained with antibodies against CD4 (BioLegend, USA) and CD8 (BioLegend, USA), respectively. The procedures of immunohistostaining were followed the protocols provided with the IHC kit (Millipore, USA). All images were digitally captured on a Scanscope CS system (Aperio, USA).

[1] = mouse, in vivo
Experimental: Second, all animal study protocols were approved by the Institutional Animal Care and Use Committee (IACAU) of National Yang Ming University. Mirtazapine (0.25 mg) was dissolved in 0.05 ml of 0.9% NaCl plus 0.5% absolute ethanol for each mouse (i.e. 10 mg/kg.) Male BALB/c mice (initial weights 25±2 g, and purchased from the National Laboratory Animal Center, Taipei, Taiwan) were housed in the cages, five mice per cage, under a 12:12 h reverse light/dark cycle with lights off at 6 pm Animals were handled and weighed daily for a week to reduce any non-specific stress responses. […] “Wild-type” means the mice are monitored without tumor inoculation and mirtazapine treatment, drug means the mice are monitored with continuous mirtazapine treatment but without tumor inoculation, never means the mice are monitored with tumor inoculation and daily 0.05 ml of 0.9% NaCl plus 0.5% absolute ethanol treatment but without mirtazapine treatment, always means the mice are monitored with mirtazapine treatment initiated 2 weeks before the tumor inoculation, and concurrent means the mice are monitored with tumor inoculation and mirtazapine treatment on the same day, and after means the mice are monitored with mirtazapine treatment initiated 2 weeks post the tumor inoculation. […]

CD4+ and CD8+ T cells = experiment: Immunohistostaining of infiltrating CD4+ and CD8+ T cells in tumor tissues; type: in vivo, mouse; conditions: concurrent and always vs never; day 42 post tumor inoculation; p<0.01 and p<0.001
Experimental: Immunohistochemistry (IHC) of CD4 and CD8 was also performed on day 42 post the tumor inoculation. Tumors were then removed, paraffin embedded, and 5-mm sectioning was performed. The sections were immunohistostained with antibodies against CD4 (BioLegend, USA) and CD8 (BioLegend, USA), respectively. The procedures of immunohistostaining were followed the protocols provided with the IHC kit (Millipore, USA). All images were digitally captured on a Scanscope CS system (Aperio, USA).

CT26/luc tumor = CT26/luc tumor growth in BALB/c mice (caliper tumor volume, BLI); type: in vivo, mouse; parameters: mean tumor growth time / mean tumor growth delay time: unit not given here; conditions: for mean tumor growth delay time: growth time of treated group minus that of never; for mean tumor growth time: time at which tumor volume reaches 400 mm; for mean tumor growth inhibition rate: growth rate of treated group/growth rate of never
Experimental: as §1, §2
Accordingly, the CT26/luc cells (2×10^6 cells/200 μL) suspended in the serum-free RPMI medium were transplanted subcutaneously into the dorsal region of the right thighs of the BALB/c mice. 10 mg/kg/d mirtazapine dissolved in 0.9% sodium chloride and 0.5% ethanol was administered to mice by gavage daily till mice expired or terminated on day 67 post tumor inoculation. Survival rate and interval were assayed for never, always, concurrent, and after (n=10 per group).
As to the tumor growth, it was monitored using a digital caliper twice a week. The tumor volume was calculated according the following formula: […]
0.5236×length×width×thickness
Bioluminescence imaging (hereafter called “BLI”) used for tumor size tracking was performed with an IVIS50 animal imaging system (Xenogen Corp., USA).

## CN1CCN2c3ncccc3Cc3ccccc3C2C1 (stereo not shown) [mirtazapine]
CT26/luc cells
  toxicity to CT26 colon cells: nontoxic
IL-12p70; group after (never: 13 folds)
  sIL-12 concentration increase: 16 folds
IL-12p70; group after, 6 weeks post tumor inoculation
  sIL-12 concentration: dropped to the control level
IL-12p70; group always, peak at 1 wk post tumor cell inoculation
  sIL-12 concentration increase to peak level: 18 folds
IL-12p70; group concurrent (never: 13 folds)
  sIL-12 concentration increase: 17 folds
IL-12p70; group drug (no tumor), peak at 0 wk post tumor cell inoculation
  sIL-12 concentration increase to peak level: 13 folds
IL-12p70; group drug, 4 wks post tumor cell inoculation, never 7 pg/ml
  sIL-12 concentration: 42 pg/mL
[1]
  body weight change (general toxicity): no significant body weight change
CD4+ and CD8+ T cells
  infiltrating CD4+ and CD8+ cells/0.1 mm^2 tumor tissues: significantly increased numbers
CT26/luc tumor; always, concurrent and after vs never, day 22-47 after tumor inoculation, p<0.01
  tumor growth inhibition: significant tumor growth inhibition
CT26/luc tumor; group Always (2 weeks before inoculation)
  mean tumor growth delay time: 18.8
CT26/luc tumor; group Always: mirtazapine 10 mg/kg/d by gavage initiated 2 weeks before tumor inoculation
  mean tumor growth time: 41.3
CT26/luc tumor; group Always
  mean tumor growth inhibition rate: 1.8
CT26/luc tumor; group Concurrent (same day as inoculation)
  mean tumor growth delay time: 8.2
CT26/luc tumor; group Concurrent: mirtazapine 10 mg/kg/d from the day of tumor inoculation
  mean tumor growth time: 30.9
CT26/luc tumor; group Concurrent
  mean tumor growth inhibition rate: 1.4
CT26/luc tumor; group after (2 weeks post inoculation)
  mean tumor growth delay time: 2.8
CT26/luc tumor; group after: mirtazapine 10 mg/kg/d initiated 2 weeks post tumor inoculation
  mean tumor growth time: 25.4
CT26/luc tumor; group after
  mean tumor growth inhibition rate: 1.1
